Assay results as given in ChEMBL document CHEMBL1201862, “PubChem BioAssay data set” (2004).
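In this assay, cells in 96-well plates receive the compound at five concentrations for 48 hours. Endpoints are linearly interpolated between the surrounding concentrations. GI50 = concentration required for 50% inhibition of growth.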 The source made the active and inactive calls. Cut-off read from the data, not from the text of the source: active = GI50 up to about 1.1 µM and inactive = higher.

Legend:
Assay in all cases: DTP human tumour cell line panel, 48 h
786-0 = system: 786-0
A549 = system: A549
CAKI-1 = system: CAKI-1
COLO 205 = system: COLO 205
DU-145 = system: DU-145
HOP-62 = system: HOP-62
Hs-578T = system: Hs-578T
LOX IMVI = system: LOX IMVI
MDA-MB-231 = system: MDA-MB-231
MDA-MB-435 = system: MDA-MB-435
MOLT-4 = system: MOLT-4
NCI-H23 = system: NCI-H23
OVCAR-8 = system: OVCAR-8
SK-MEL-2 = system: SK-MEL-2
SK-MEL-5 = system: SK-MEL-5
SNB-19 = system: SNB-19
SW-620 = system: SW-620
U-251 = system: U-251
UACC-62 = system: UACC-62
UO-31 = system: UO-31

SMILES | GI50 (786-0) | GI50 (A549) | GI50 (CAKI-1) | GI50 (COLO 205) | GI50 (DU-145) | GI50 (HOP-62) | GI50 (Hs-578T) | GI50 (LOX IMVI) | GI50 (MDA-MB-231) | GI50 (MDA-MB-435) | GI50 (MOLT-4) | GI50 (NCI-H23) | GI50 (OVCAR-8) | GI50 (SK-MEL-2) | GI50 (SK-MEL-5) | GI50 (SNB-19) | GI50 (SW-620) | GI50 (U-251) | GI50 (UACC-62) | GI50 (UO-31)
COc1c2occc2c(N)c2ccc(=O)oc12 | > 100 µM (inactive) | > 100 µM (inactive) | > 100 µM (inactive) | > 100 µM (inactive) | > 100 µM (inactive) | > 100 µM (inactive) | > 100 µM (inactive) | > 100 µM (inactive) | > 100 µM (inactive) | > 100 µM (inactive) | > 100 µM (inactive) | > 100 µM (inactive) | > 100 µM (inactive) | > 100 µM (inactive) | 35 µM (inactive) | > 100 µM (inactive) | > 100 µM (inactive) | > 100 µM (inactive) | 41.6 µM (inactive) | > 100 µM (inactive)
Cc1ccc(C)c(C2NC(=O)c3ccccc3N2)c1 (stereo not given) | 1.76 µM (inactive) | 1.79 µM (inactive) | 3.27 µM (inactive) | 0.703 µM (active) | 2.56 µM (inactive) | 1.93 µM (inactive) | 1.09 µM (active) | 2.05 µM (inactive) | 10.3 µM (inactive) | 0.0792 µM (active) | 0.506 µM (active) | 6.04 µM (inactive) | 4.31 µM (inactive) | 1.29 µM (inactive) | 0.335 µM (active) | 2.1 µM (inactive) | 0.472 µM (active) | 1.21 µM (inactive) | 1.31 µM (inactive) | 7.71 µM (inactive)
CC1(C)CC(=O)c2c(nc3ccc4ccccc4c3c2-c2ccc(NC(=O)CCCC(=O)Nc3ccc(-c4c5c(nc6ccc7ccccc7c46)CC(C)(C)CC5=O)cc3)cc2)C1 | > 100 µM (inactive) | > 100 µM (inactive) | > 100 µM (inactive) | > 100 µM (inactive) | > 100 µM (inactive) | > 100 µM (inactive) | 60.3 µM (inactive) | > 100 µM (inactive) | > 100 µM (inactive) | > 100 µM (inactive) | > 100 µM (inactive) | > 100 µM (inactive) | > 100 µM (inactive) | > 100 µM (inactive) | > 100 µM (inactive) | > 100 µM (inactive) | > 100 µM (inactive) | > 100 µM (inactive) | > 100 µM (inactive) | > 100 µM (inactive)
COc1ccc2nc3cccc([N+](=O)[O-])c3c(NCCO)c2c1 | 0.0112 µM (active) | 0.0198 µM (active) | 0.0183 µM (active) | 0.00527 µM (active) | 0.011 µM (active) | 0.0208 µM (active) | 0.0169 µM (active) | 0.00149 µM (active) | 0.0138 µM (active) | 0.00656 µM (active) | 0.0255 µM (active) | 0.0219 µM (active) | 0.0083 µM (active) | 0.0175 µM (active) | 0.0188 µM (active) | 0.0486 µM (active) | 0.00164 µM (active) | 0.0211 µM (active) | 0.0182 µM (active) | 0.0218 µM (active)
O=C1NC2(CCNCC2)Oc2ccccc21 | > 100 µM (inactive) | > 100 µM (inactive) | > 100 µM (inactive) | > 100 µM (inactive) | > 100 µM (inactive) | > 100 µM (inactive) | > 100 µM (inactive) | > 100 µM (inactive) | > 100 µM (inactive) | > 100 µM (inactive) | > 100 µM (inactive) | > 100 µM (inactive) | > 100 µM (inactive) | > 100 µM (inactive) | > 100 µM (inactive) | > 100 µM (inactive) | > 100 µM (inactive) | > 100 µM (inactive) | > 100 µM (inactive) | > 100 µM (inactive)
Nc1nc(N)c2ncn(Cc3ccccc3CO)c2n1 | > 100 µM (inactive) | > 100 µM (inactive) | > 100 µM (inactive) | > 100 µM (inactive) | > 100 µM (inactive) | > 100 µM (inactive) | > 100 µM (inactive) | > 100 µM (inactive) | > 100 µM (inactive) | > 100 µM (inactive) | > 100 µM (inactive) | > 100 µM (inactive) | > 100 µM (inactive) | > 100 µM (inactive) | > 100 µM (inactive) | > 100 µM (inactive) | > 100 µM (inactive) | > 100 µM (inactive) | > 100 µM (inactive) | > 100 µM (inactive)
CC1OC(O)CC(N(C)C)C1O.CC1OC(O)CCC1O.CCC1CC(O)c2c(O)c3c(c(O)c2C1O)C(=O)c1cccc(O)c1C3=O (stereo not given) | 0.0124 µM (active) | 0.0313 µM (active) | 0.0156 µM (active) | 0.0209 µM (active) | 0.0333 µM (active) | 0.034 µM (active) | 0.0507 µM (active) | 0.0135 µM (active) | 0.0275 µM (active) | 0.023 µM (active) | 0.0284 µM (active) | 0.0301 µM (active) | 0.0211 µM (active) | 0.0212 µM (active) | 0.0177 µM (active) | 0.0301 µM (active) | 0.014 µM (active) | 0.0211 µM (active) | 0.0197 µM (active) | 0.0114 µM (active)
CC(=O)N(C(C)=O)n1c(Cc2ccc(C)cc2)nn(C(C)=O)c1=O | > 100 µM (inactive) | > 100 µM (inactive) | > 100 µM (inactive) | > 100 µM (inactive) | > 100 µM (inactive) | > 100 µM (inactive) | > 100 µM (inactive) | > 100 µM (inactive) | > 100 µM (inactive) | > 100 µM (inactive) | > 100 µM (inactive) | > 100 µM (inactive) | > 100 µM (inactive) | > 100 µM (inactive) | > 100 µM (inactive) | > 100 µM (inactive) | > 100 µM (inactive) | > 100 µM (inactive) | > 100 µM (inactive) | > 100 µM (inactive)
CC1CC2=C(C1)C(C1(C)C(=O)CC3C(C1=O)C3(C)C)C(C)C2=O (stereo not given) | > 100 µM (inactive) | > 100 µM (inactive) | > 100 µM (inactive) | > 100 µM (inactive) | > 100 µM (inactive) | > 100 µM (inactive) | > 100 µM (inactive) | > 100 µM (inactive) | > 100 µM (inactive) | > 100 µM (inactive) | 62.7 µM (inactive) | > 100 µM (inactive) | > 100 µM (inactive) | > 100 µM (inactive) | > 100 µM (inactive) | > 100 µM (inactive) | > 100 µM (inactive) | > 100 µM (inactive) | > 100 µM (inactive) | 99.5 µM (inactive)
COc1cc(Nc2cc(Cl)cc(Cl)c2)nc(N)n1 | 17.4 µM (inactive) | 19.9 µM (inactive) | 20.4 µM (inactive) | 23.1 µM (inactive) | 18.8 µM (inactive) | 17.5 µM (inactive) | 26.2 µM (inactive) | 16.3 µM (inactive) | 18.9 µM (inactive) | 24.5 µM (inactive) | 16.6 µM (inactive) | 20.3 µM (inactive) | 18.9 µM (inactive) | 14.3 µM (inactive) | 15.3 µM (inactive) | 22.9 µM (inactive) | 19.7 µM (inactive) | 15.2 µM (inactive) | 17.1 µM (inactive) | 16.9 µM (inactive)
CC1=C(Br)C(=O)c2c(O)ccc(O)c2C1=O | 0.19 µM (active) | 1.89 µM (inactive) | 0.282 µM (active) | 0.187 µM (active) | 1.52 µM (inactive) | 0.849 µM (active) | 2.81 µM (inactive) | 0.55 µM (active) | 1.26 µM (inactive) | 0.204 µM (active) | 0.0258 µM (active) | 0.938 µM (active) | 0.481 µM (active) | 5.83 µM (inactive) | 0.435 µM (active) | 1.72 µM (inactive) | 0.163 µM (active) | 1.5 µM (inactive) | 0.71 µM (active) | 0.625 µM (active)
CC1=C(C(=O)Nc2ccccc2)C2(CCCCC2)C(C#N)=C(SCC(=O)Nc2ccc(Br)cc2)N1 | 4.1 µM (inactive) | 3.77 µM (inactive) | 4.76 µM (inactive) | 2.11 µM (inactive) | 7.76 µM (inactive) | 10.1 µM (inactive) | 3.57 µM (inactive) | 3.43 µM (inactive) | 7.33 µM (inactive) | 4.47 µM (inactive) | 2.82 µM (inactive) | 4.1 µM (inactive) | 5.58 µM (inactive) | 2.54 µM (inactive) | 3.46 µM (inactive) | 6.49 µM (inactive) | 5.43 µM (inactive) | 4.51 µM (inactive) | 6.85 µM (inactive) | 1.39 µM (inactive)
CC1=CC(=O)c2ccc(C)cc2C1=O [CHIMAPHILIN] | 19.7 µM (inactive) | 15.9 µM (inactive) | 5.78 µM (inactive) | 16.3 µM (inactive) | 16.8 µM (inactive) | 17.4 µM (inactive) | 20.5 µM (inactive) | 5.09 µM (inactive) | 11.6 µM (inactive) | 2.49 µM (inactive) | 2.41 µM (inactive) | 5.22 µM (inactive) | 10.6 µM (inactive) | 16.2 µM (inactive) | 3.82 µM (inactive) | 16.1 µM (inactive) | 11.8 µM (inactive) | 11.5 µM (inactive) | 8.18 µM (inactive) | 11.4 µM (inactive)
